Like-named read-outs stand apart in the source and are kept apart here.
How the values were obtained:
Assay in all cases: Clytin II luminescence calcium assay, HEK293
Format in all cases: cell-based
TAS2R46 (hTAS2R46) [1] = target: T1, TAS2R46 (hTAS2R46) (Homo sapiens, UniProt P59540)
T1 construct: full-length TAS2R46 with first 45 amino acids of SST3 fused at N-terminus; pEF-DEST51; transient in HEK293 with G-alpha16-gust44 and mitochondrial Clytin II
T1 sequence (P59540 1-309): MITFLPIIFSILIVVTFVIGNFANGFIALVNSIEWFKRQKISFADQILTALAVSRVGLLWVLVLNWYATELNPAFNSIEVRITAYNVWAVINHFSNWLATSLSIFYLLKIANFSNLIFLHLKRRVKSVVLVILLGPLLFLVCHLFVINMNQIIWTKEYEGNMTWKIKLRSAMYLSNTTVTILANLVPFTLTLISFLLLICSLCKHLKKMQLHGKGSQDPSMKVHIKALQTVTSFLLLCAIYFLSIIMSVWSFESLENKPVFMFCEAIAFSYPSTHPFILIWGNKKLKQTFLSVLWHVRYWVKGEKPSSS

TAS2R46 (hTAS2R46) [2] = target: T1, TAS2R46 (hTAS2R46); conditions: agonist; G-alpha16-gust44 co-expressed; HBSS, 10 mM HEPES pH 7.4
TAS2R46 (hTAS2R46) [3] = target: T1, TAS2R46 (hTAS2R46); conditions: agonist; G-alpha16-gust44 co-expressed; HBSS, 10 mM HEPES pH 7.4; remark: listed apart in the source

## C[C@]12CC[C@H]3[C@@H](CCC4=CC(=O)CC[C@@]43C)[C@@H]1CC[C@@H]2O [testosterone]
TAS2R46 (hTAS2R46) [1]
  EC50: 11.7 µM

## C[C@]12CCC(=O)C=C1CC[C@@H]1[C@@H]2CC[C@@]2(C)[C@H]1CC[C@]2(O)C(=O)CO [cortexolone]
TAS2R46 (hTAS2R46) [2]
  threshold: cortisol and corticosterone showed lower potency than their metabolic intermediates, deoxycorticosterone and cortexolone, respectively

## C[C@]12CC[C@@H]3c4ccc(O)cc4CC[C@H]3[C@@H]1CCC2=O [estrone]
TAS2R46 (hTAS2R46) [3]
  Clytin II luminescence calcium assay, HEK293: All candidate compounds, except estrone, elicited concentration-dependent responses

## CC(=O)[C@@]1(O)CC[C@H]2[C@@H]3CCC4=CC(=O)CC[C@]4(C)[C@H]3CC[C@@]21C [17-hydroxyprogesterone]
TAS2R46 (hTAS2R46) [1]; read-out: EC50
  EC50: 3.8 µM

## C[C@]12CCC(=O)C=C1CC[C@@H]1[C@@H]2CC[C@]2(C)C(=O)CC[C@@H]12 [androstenedione]
TAS2R46 (hTAS2R46) [2]
  threshold: All candidate compounds, except estrone, elicited concentration-dependent responses in TAS2R46-expressing HEK293 cells

## C[C@]12CCC(=O)C[C@@H]1CC[C@@H]1[C@@H]2CC[C@]2(C)[C@@H](O)CC[C@@H]12 [dihydrotestosterone]
TAS2R46 (hTAS2R46) [2]
  threshold: All candidate compounds, except estrone, elicited concentration-dependent responses in TAS2R46-expressing HEK293 cells

## CC(=O)[C@H]1CC[C@H]2[C@@H]3CCC4=CC(=O)CC[C@]4(C)[C@H]3CC[C@]12C [progesterone]
TAS2R46 (hTAS2R46) [1]; read-out: EC50
  EC50: 7.9 µM

## C[C@]12CC[C@H](O)CC1=CC[C@@H]1[C@@H]2CC[C@]2(C)C(=O)CC[C@@H]12 [dehydroepiandrosterone]
TAS2R46 (hTAS2R46) [1]; read-out: EC50
  EC50: 14.9 µM

## C[C@]12CCC(=O)C=C1CC[C@@H]1[C@@H]2[C@@H](O)C[C@@]2(C)[C@H]1CC[C@]2(O)C(=O)CO [cortisol]
TAS2R46 (hTAS2R46) [2]
  threshold: cortisol and corticosterone showed lower potency than their metabolic intermediates, deoxycorticosterone and cortexolone, respectively

## C[C@]12CC[C@H]3[C@@H](CCC4=CC(=O)CC[C@@]43C)[C@@H]1CC[C@@H]2C(=O)CO [deoxycorticosterone]
TAS2R46 (hTAS2R46) [2]
  threshold: cortisol and corticosterone showed lower potency than their metabolic intermediates, deoxycorticosterone and cortexolone, respectively

## C[C@]12C[C@H](O)[C@H]3[C@@H](CCC4=CC(=O)CC[C@@]43C)[C@@H]1CC[C@@H]2C(=O)CO [corticosterone]
TAS2R46 (hTAS2R46) [2]
  threshold: cortisol and corticosterone showed lower potency than their metabolic intermediates, deoxycorticosterone and cortexolone, respectively

Source: article PMC13393665, “Structure-based virtual screening identifies potential endogenous ligands of the human bitter taste receptor TAS2R46” (The Journal of Biological Chemistry, 2026)
